Reference: US20080051454A1, “Compositions and methods for transient receptor potential vanilloid (TRPV) channel mediated treatments” (The Board of Trustees Operating Michigan State University, priority 2006, published 2008)

Legend:
hearts of TRPV1−/− mice = assay: Langendorff perfused heart, ischemia and reperfusion (I/R) with OLDA, TRPV1-null; design: species or system mouse
Procedure: (§1) The following measurements were made on the two types of heart tissue: left ventricular end-diastolic pressure (LVEDP), left ventricular developed pressure (LVDP), coronary flow (CF), and left ventricular (LV) peak positive rate of pressure change/rate of time change (+dP/dt) were evaluated after I/R.

[1] = molecular target: transient receptor potential vanilloid type 1 (TRPV1) channel (Homo sapiens, UniProt Q8NER1); conditions: in vitro; cited from earlier work
Sequence of transient receptor potential vanilloid type 1 (TRPV1) channel (Q8NER1 whole entry, species assumed, the tested form may be a part): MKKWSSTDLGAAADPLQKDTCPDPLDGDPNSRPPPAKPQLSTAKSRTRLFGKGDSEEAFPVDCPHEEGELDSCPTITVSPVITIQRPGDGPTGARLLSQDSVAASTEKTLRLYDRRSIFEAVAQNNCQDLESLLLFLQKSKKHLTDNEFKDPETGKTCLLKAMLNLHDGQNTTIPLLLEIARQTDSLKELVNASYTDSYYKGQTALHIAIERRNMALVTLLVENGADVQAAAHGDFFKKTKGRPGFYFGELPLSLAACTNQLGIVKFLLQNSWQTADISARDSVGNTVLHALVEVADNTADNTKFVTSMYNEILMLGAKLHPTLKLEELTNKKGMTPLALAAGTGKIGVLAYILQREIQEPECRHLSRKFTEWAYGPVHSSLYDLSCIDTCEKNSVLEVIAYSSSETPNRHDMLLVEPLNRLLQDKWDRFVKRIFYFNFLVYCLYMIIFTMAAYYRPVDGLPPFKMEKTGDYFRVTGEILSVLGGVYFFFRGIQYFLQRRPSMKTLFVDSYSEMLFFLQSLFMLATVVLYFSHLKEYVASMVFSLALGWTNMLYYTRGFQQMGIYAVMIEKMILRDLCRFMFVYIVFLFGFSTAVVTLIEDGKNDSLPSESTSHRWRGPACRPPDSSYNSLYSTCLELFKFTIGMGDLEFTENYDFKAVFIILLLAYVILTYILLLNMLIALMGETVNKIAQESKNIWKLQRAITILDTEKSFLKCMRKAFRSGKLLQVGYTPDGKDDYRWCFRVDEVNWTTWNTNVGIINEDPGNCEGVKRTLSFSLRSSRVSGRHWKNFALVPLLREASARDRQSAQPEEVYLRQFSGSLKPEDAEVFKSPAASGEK

hearts of WT mice = assay: Langendorff perfused heart, ischemia and reperfusion (I/R) with OLDA, wild type; design: species or system mouse; conditions: OLDA 1.5×10^−7M; WT
Procedure: as §1

WT and TRPV1−/− hearts = assay: OLDA-induced CGRP and SP release from hearts (radioimmunoassay); design: species or system mouse
renal tissues = assay: Capsaicin-induced CGRP release from renal tissues; design: species or system rat; conditions: Cap-HS and Cap-NS vs Con-NS and Con-HS
Text: N¼5,_P<0.05 versus vehicle, capsazepine plus capsaicin and capsazepine; †P<0.001 versus capsaicin of control rats with a normal sodium diet (Con-NS) and capsaicin of control rats with a high sodium diet (Con-HS). Vehicle; capsaicin; capsazepine and capsaicin; capsazepine.
To examine renal sensory nerve function, renal CGRP release after stimulation of the renal sensory nerves with capsaicin was examined.

[2] = system: rats fed either a high or normal sodium diet; conditions: rat, in vivo; cited from earlier work
rats = conditions: dose-dependent; abolished by TRPV1 blockade or ipsilateral renal denervation; cited from earlier work
Wistar rats = assay: Neonatal capsaicin treatment plus NS or HS diet: blood pressure, 8-isoprostane, creatinine clearance; format: in vivo, rat
Procedure: (§2) Enhanced oxidative stress in kidneys of salt-sensitive hypertension: role of sensory nerves (Am J Physiol Heart Circ Physiol 291: H3136-H3143, 2006). To determine the mechanism(s) underlying enhanced oxidative stress in kidneys of salt-sensitive hypertension, neonatal Wistar rats were given vehicle or capsaicin (CAP, 50 mg/kg sc) on the first and second days of life. After being weaned, male rats were assigned into four groups and treated for 2 wk with the following: vehicle+a normal sodium diet (NS, 0.4%, CON-NS), vehicle+a high-sodium diet (HS, 4%, CON-HS), CAP+NS (CAP−NS), and CAP+HS (CAP−HS). […] Plasma and urinary 8-iso-prostaglandin F2alpha levels increased by approximately 40% in CON-HS and CAP−HS rats compared with their respective controls fed a NS diet (P≦0.05), and these parameters were higher in CAP−HS compared with CON-HS rats. Superoxide (O2—) levels in the renal cortex and medulla increased by approximately 45% in CAP−HS compared with CON-HS, CON-NS, and CAP−NS rats (P≦0.05).

[3] = system: Wistar rats fed a NS or HS diet for 10 days; assay: MAP responses to i.v. capsaicin with or without CAPZ in urethane-anesthetized rats; format: in vivo, rat; conditions: for decrease in MAP: in mmHg
Procedure: Surgical Preparation Rats were anesthetized with ketamine and xylazine (80 and 4 mg/kg intraperitoneally, respectively) for cannulation or with urethane (1.5 g/kg intraperitoneally) for capsaicin administration. The left jugular vein, carotid and femoral artery were cannulated under anesthesia for injection of drugs or monitoring of mean arterial pressure (MAP) and heart rate (HR).
Each dose of injection was separated by a 30-minute interval. To determine the specificity of capsaicin, CAPZ (3 mg/kg) was administered 10 minutes before capsaicin injection in a separate group.

renal cortex and medulla = assay: Neonatal capsaicin treatment plus NS or HS diet: renal superoxide, SOD and NAD(P)H oxidase subunits; design: species or system rat; conditions: for renal cortical Cu/Zn SOD activity / renal cortical Cu/Zn SOD protein expression / renal cortical Mn SOD activity / renal cortical Mn SOD protein expression / renal cortical O2— production / renal cortical gp91 phox protein expression / renal cortical p47phox protein expression / renal medullary Cu/Zn SOD activity / renal medullary Cu/Zn SOD protein expression / renal medullary Mn SOD activity / renal medullary Mn SOD protein expression / renal medullary O2— production / renal medullary p47phox protein expression: neonatal CAP
Procedure: as §2, with “(P≦0.05). […]” for “(P≦0.05).”

[4] = CAP−HS compared with CON-HS, CON-NS, CAP−NS

**Q.** For `CCCCCCCC/C=C\CCCCCCCC(=O)NCCc1ccc(O)c(O)c1` [OLDA, N-oleoyl-dopamine], which “protective effect in TRPV1−/− hearts” value (hearts of TRPV1−/− mice) is on record?
**A.** void

**Q.** What about the “LV peak positive dP/dt (+dP/dt) after I/R” value (hearts of TRPV1−/− mice; OLDA 1.5×10^−7M, TRPV1−/−) of the same compound?
**A.** 1967±299 mmHg/s

**Q.** And the “coronary flow (CF) after I/R” value (hearts of TRPV1−/− mice; OLDA 1.5×10^−7M, TRPV1−/−)?
**A.** 53±2%

**Q.** And the “left ventricular developed pressure (LVDP) after I/R” value (hearts of TRPV1−/− mice; OLDA 1.5×10^−7M, TRPV1−/−)?
**A.** 39.8±3.7 mmHg

**Q.** And the “left ventricular end-diastolic pressure (LVEDP) after I/R” value (hearts of TRPV1−/− mice; OLDA 1.5×10^−7M, TRPV1−/−)?
**A.** 29.9±3.5 mmHg

**Q.** What about the “potency relative to capsaicin” value [1] of the same compound?
**A.** at least 30 times

**Q.** And the “LV peak positive dP/dt (+dP/dt) after I/R” value (hearts of WT mice)?
**A.** 3227±126 mmHg/s

**Q.** And the “coronary flow (CF) after I/R” value (hearts of WT mice)?
**A.** 76±6%

**Q.** What about the “left ventricular developed pressure (LVDP) after I/R” value (hearts of WT mice) of the same compound?
**A.** 61.3±3.8 mmHg

**Q.** And the “left ventricular end-diastolic pressure (LVEDP) after I/R” value (hearts of WT mice)?
**A.** 10.1±0.6 mmHg

**Q.** And the “CGRP and SP release in WT compared to TRPV1−/− hearts” value (WT and TRPV1−/− hearts)?
**A.** significantly higher

**Q.** For `COc1cc(CNC(=O)CCCC/C=C/C(C)C)ccc1O` [capsaicin, (E)-N-(4-hydroxy-3-methoxybenzyl)-8-methylnon-6-enamide], which “renal CGRP release in response to 1 mmol/l capsaicin in capsaicin-pretreated vs control rats” value (renal tissues) is on record?
**A.** significantly lower

**Q.** And the “MAP” value [2]?
**A.** decrease in MAP

**Q.** What about the “plasma CGRP levels” value [2] of the same compound?
**A.** increase in plasma CGRP levels

**Q.** What about the “Uflow and UNa” value (rats) of the same compound?
**A.** Increases

**Q.** And the “decrease in creatinine clearance” value (Wistar rats; [4])?
**A.** 45%

**Q.** And the “increase in plasma and urinary 8-iso-prostaglandin F2alpha levels” value (Wistar rats; CAP−HS compared with control fed a NS diet)?
**A.** approximately 40%

**Q.** And the “plasma and urine 8-isoprostane levels” value (Wistar rats; neonatal CAP, NS diet)?
**A.** did not increase

**Q.** What about the “decrease in MAP” value ([3]; CAP 10 μg/kg iv, HS) of the same compound?
**A.** 11±2

**Q.** What about the “decrease in MAP” value ([3]; CAP 10 μg/kg iv, NS) of the same compound?
**A.** 6±1

**Q.** And the “decrease in MAP” value ([3]; CAP 30 μg/kg iv, HS)?
**A.** 21±3

**Q.** And the “decrease in MAP” value ([3]; CAP 30 μg/kg iv, NS)?
**A.** 12 ±2

**Q.** And the “decrease in MAP (depressor effect)” value ([3]; capsaicin 10 μg/kg iv, HS)?
**A.** 11±2 mmHg

**Q.** And the “decrease in MAP (depressor effect)” value ([3]; capsaicin 10 μg/kg iv, NS)?
**A.** 6±1 mmHg

**Q.** And the “decrease in MAP (depressor effect)” value ([3]; capsaicin 30 μg/kg iv, HS)?
**A.** 21±3 mmHg

**Q.** And the “decrease in MAP (depressor effect)” value ([3]; capsaicin 30 μg/kg iv, NS)?
**A.** 12±2 mmHg

**Q.** What about the “increase in superoxide levels in renal cortex and medulla” value (renal cortex and medulla; [4]) of the same compound?
**A.** approximately 45%

**Q.** What about the “renal cortical Cu/Zn SOD activity” value (renal cortex and medulla; HS) of the same compound?
**A.** 74.6 9.6 mU/mg protein

**Q.** And the “renal cortical Cu/Zn SOD protein expression” value (renal cortex and medulla; HS)?
**A.** 0.39 0.05 %-actin arbitrary units

**Q.** What about the “renal cortical Mn SOD activity” value (renal cortex and medulla; HS) of the same compound?
**A.** 14.3 3.5 mU/mg protein

**Q.** And the “renal cortical Mn SOD protein expression” value (renal cortex and medulla; HS)?
**A.** 0.10 0.01 %-actin arbitrary units

**Q.** What about the “renal cortical O2— production” value (renal cortex and medulla; HS) of the same compound?
**A.** 3.53 0.46 nmol_min—1_mg dry wt—1

**Q.** And the “renal cortical gp91 phox protein expression” value (renal cortex and medulla; HS)?
**A.** 0.21 0.03 arbitrary units

**Q.** And the “renal cortical p47phox protein expression” value (renal cortex and medulla; HS)?
**A.** 0.07 0.01 arbitrary units

**Q.** What about the “renal medullary Cu/Zn SOD activity” value (renal cortex and medulla; HS) of the same compound?
**A.** 101.7 11.6 mU/mg protein

**Q.** And the “renal medullary Cu/Zn SOD protein expression” value (renal cortex and medulla; HS)?
**A.** 0.41 0.05 %-actin arbitrary units

**Q.** And the “renal medullary Mn SOD activity” value (renal cortex and medulla; HS)?
**A.** 27.1 4.2 mU/mg protein

**Q.** And the “renal medullary Mn SOD protein expression” value (renal cortex and medulla; HS)?
**A.** 0.13 0.02 %-actin arbitrary units

**Q.** And the “renal medullary O2— production” value (renal cortex and medulla; HS)?
**A.** 2.32 0.29 nmol_min—1_mg dry wt—1

**Q.** And the “renal medullary p47phox protein expression” value (renal cortex and medulla; HS)?
**A.** 0.1 0.01 arbitrary units

**Q.** And the “renal cortical Cu/Zn SOD activity” value (renal cortex and medulla; NS)?
**A.** 54.8 7.6 mU/mg protein

**Q.** What about the “renal cortical Cu/Zn SOD protein expression” value (renal cortex and medulla; NS) of the same compound?
**A.** 0.29 0.05 %-actin arbitrary units

**Q.** What about the “renal cortical Mn SOD activity” value (renal cortex and medulla; NS) of the same compound?
**A.** 10.4 2.5 mU/mg protein

**Q.** And the “renal cortical Mn SOD protein expression” value (renal cortex and medulla; NS)?
**A.** 0.07 0.01 %-actin arbitrary units

**Q.** What about the “renal cortical O2— production” value (renal cortex and medulla; NS) of the same compound?
**A.** 2.35 0.55 nmol_min—1_mg dry wt—1

**Q.** What about the “renal cortical gp91 phox protein expression” value (renal cortex and medulla; NS) of the same compound?
**A.** 0.17 0.03 arbitrary units

**Q.** What about the “renal cortical p47phox protein expression” value (renal cortex and medulla; NS) of the same compound?
**A.** 0.05 0.01 arbitrary units

**Q.** What about the “renal medullary Cu/Zn SOD activity” value (renal cortex and medulla; NS) of the same compound?
**A.** 67.0 7.6 mU/mg protein

**Q.** What about the “renal medullary Cu/Zn SOD protein expression” value (renal cortex and medulla; NS) of the same compound?
**A.** 0.27 0.05 %-actin arbitrary units

**Q.** What about the “renal medullary Mn SOD activity” value (renal cortex and medulla; NS) of the same compound?
**A.** 18.7 3.8 mU/mg protein

**Q.** And the “renal medullary Mn SOD protein expression” value (renal cortex and medulla; NS)?
**A.** 0.09 0.02 %-actin arbitrary units

**Q.** What about the “renal medullary O2— production” value (renal cortex and medulla; NS) of the same compound?
**A.** 1.43 0.40 nmol_min—1_mg dry wt—1

**Q.** And the “renal medullary p47phox protein expression” value (renal cortex and medulla; NS)?
**A.** 0.07 0.01 arbitrary units
